Patent US9695155B2, “Herbicidal substituted pyrimidinyloxy benzene compounds” (E. I. DU PONT DE NEMOURS AND COMPANY, priority 2013, dated 2017)

Experiments:
giant foxtail [1] = assay: Test A postemergence; type: in vivo, Setaria faberii
Outline: (§1)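 Pre- and postemergence greenhouse screen. Soil: loam + sand. Spray carrier: solvent mixture, non-phytotoxic, with surfactant. Post timing at 1–2 leaves, height 2–10 cm. Readout: visual injury on a 0–100 scale roughly 10 days after application, untreated plants as reference.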

kochia = assay: Test C postemergence; type: in vivo, Kochia scoparia
Outline: (§2)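 Whole-plant greenhouse test with surfactant-containing solvent formulation, applied preemergence to sown loam–sand pots or postemergence to 2–18 cm plants. Scored by eye 13 to 15 days on, 0–100 scale.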

rice = assay: Test B flooded paddy test; type: in vivo, Oryza sativa; conditions: Flood, 250 g ai/ha, 0 to 100 scale where 0 is no effect and 100 is complete control
Outline: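 Flooded to 3 cm at the 2-leaf stage, pots received compound through the paddy water and were kept at that depth under greenhouse conditions. After 13–15 days, effect was rated by eye relative to controls, 0 = none and 100 = complete control.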

pigweed = assay: Test C postemergence; type: in vivo, Amaranthus retroflexus; conditions: for Pigweed plant response rating: 31 g ai/ha
Outline: as §2

Italian ryegrass = assay: Test C postemergence; type: in vivo, Lolium multiflorum; conditions: for Ryegrass, Italian plant response rating: 31 g ai/ha
Outline: as §2

corn = assay: Test A postemergence; type: in vivo, Zea mays
Outline: as §1

morningglory = assay: Test C postemergence; type: in vivo, Ipomoea coccinea; conditions: for Morningglory plant response rating: 31 g ai/ha
Outline: as §2

wild oat = assay: Test C postemergence; type: in vivo, Avena fatua; conditions: for Oat, Wild plant response rating: 31 g ai/ha
Outline: as §2

yellow nutsedge = assay: Test C postemergence; type: in vivo, Cyperus esculentus; conditions: for Nutsedge, Yellow plant response rating: 31 g ai/ha
Outline: as §2

giant foxtail [2] = assay: Test A preemergence; type: in vivo, Setaria faberii; conditions: for Foxtail, Giant plant response rating (0 to 100 scale): 125 g ai/ha
Outline: as §1

[3] = 31 g ai/ha, 0 to 100 scale, 0 no effect, 100 complete control
[4] = 125 g ai/ha, 0 to 100 scale, 0 no effect, 100 complete control
[5] = 16 g ai/ha, postemergence, 0 is no effect, 100 is complete control
[6] = 31 g ai/ha, postemergence, visual rating, scale 0 to 100 (0 no effect, 100 complete control), 13 to 15 days
[7] = 125 g ai/ha, postemergence, visual rating, scale 0 to 100 (0 no effect, 100 complete control)
[8] = Postemergence, 62 g ai/ha, scale 0 to 100 (0 no effect, 100 complete control), 13 to 15 days
[9] = postemergence, visual rating, scale 0 to 100 (0 no effect, 100 complete control), 13 to 15 days
[10] = 500 g ai/ha, 0 to 100 scale where 0 is no effect and 100 is complete control

FC(F)Oc1cnn(-c2c(Cl)cccc2Oc2ncc(Cl)cn2)c1 [Compound 258]
Plant response rating, Foxtail, Giant (giant foxtail [1]; [3]): 20
Plant response rating, Foxtail, Giant (giant foxtail [1]; [4]): 70
Plant response rating (0 to 100), Kochia (kochia; [5]): 90
Kochia plant response rating (kochia; [6]): 95
Plant response rating, Kochia (kochia; [7]): 100
Plant response rating, Kochia (kochia; [8]): 100
Plant response rating, Rice (rice): 30
Plant response rating (0 to 100), Pigweed (pigweed; [5]): 75
Pigweed plant response rating (pigweed; [9]): 85
Plant response rating, Pigweed (pigweed; [7]): 90
Plant response rating, Pigweed (pigweed; [8]): 85
Plant response rating (0 to 100), Ryegrass, Italian (Italian ryegrass; [5]): 0
Ryegrass, Italian plant response rating (Italian ryegrass; [9]): 0
Plant response rating, Ryegrass, Italian (Italian ryegrass; [7]): 30
Plant response rating, Ryegrass, Italian (Italian ryegrass; [8]): 0
Plant response rating, Corn (corn; [3]): 10
Plant response rating, Corn (corn; [4]): 40
Plant response rating (0 to 100), Morningglory (morningglory; [5]): 65
Morningglory plant response rating (morningglory; [9]): 85
Plant response rating, Morningglory (morningglory; [7]): 95
Plant response rating, Morningglory (morningglory; [8]): 85
Plant response rating (0 to 100), Oat, Wild (wild oat; [5]): 5
Oat, Wild plant response rating (wild oat; [9]): 5
Plant response rating, Oat, Wild (wild oat; [7]): 15
Plant response rating, Oat, Wild (wild oat; [8]): 10
Plant response rating (0 to 100), Nutsedge, Yellow (yellow nutsedge; [5]): 0
Nutsedge, Yellow plant response rating (yellow nutsedge; [9]): 0
Plant response rating, Nutsedge, Yellow (yellow nutsedge; [7]): 5
Plant response rating, Nutsedge, Yellow (yellow nutsedge; [8]): 5
Plant response rating, Foxtail, Giant (giant foxtail [2]; 31 g ai/ha, 0 to 100 scale where 0 is no effect and 100 is complete control, visual, approximately 10 days): 60
Foxtail, Giant plant response rating (0 to 100 scale) (giant foxtail [2]): 100

N#Cc1cn(-c2c(C#N)cccc2Oc2ncc(Cl)cn2)nn1 [Compound 273]
Plant response rating, Foxtail, Giant (giant foxtail [1]; [4]): 70
Plant response rating, Foxtail, Giant (giant foxtail [1]; [10]): 90
Plant response rating (0 to 100), Kochia (kochia; [5]): 70
Kochia plant response rating (kochia; [6]): 65
Plant response rating, Kochia (kochia; [7]): 95
Plant response rating, Kochia (kochia; [8]): 80
Plant response rating, Rice (rice): 0
Plant response rating (0 to 100), Pigweed (pigweed; [5]): 65
Pigweed plant response rating (pigweed; [9]): 80
Plant response rating, Pigweed (pigweed; [7]): 90
Plant response rating, Pigweed (pigweed; [8]): 65
Plant response rating (0 to 100), Ryegrass, Italian (Italian ryegrass; [5]): 5
Ryegrass, Italian plant response rating (Italian ryegrass; [9]): 5
Plant response rating, Ryegrass, Italian (Italian ryegrass; [7]): 10
Plant response rating, Ryegrass, Italian (Italian ryegrass; [8]): 5
Plant response rating, Corn (corn; [4]): 40
Plant response rating, Corn (corn; [10]): 50
Plant response rating (0 to 100), Morningglory (morningglory; [5]): 60
Morningglory plant response rating (morningglory; [9]): 65
Plant response rating, Morningglory (morningglory; [7]): 85
Plant response rating, Morningglory (morningglory; [8]): 65
Plant response rating (0 to 100), Oat, Wild (wild oat; [5]): 5
Oat, Wild plant response rating (wild oat; [9]): 5
Plant response rating, Oat, Wild (wild oat; [7]): 10
Plant response rating, Oat, Wild (wild oat; [8]): 5
Plant response rating (0 to 100), Nutsedge, Yellow (yellow nutsedge; [5]): 10
Nutsedge, Yellow plant response rating (yellow nutsedge; [9]): 5
Plant response rating, Nutsedge, Yellow (yellow nutsedge; [7]): 25
Plant response rating, Nutsedge, Yellow (yellow nutsedge; [8]): 5
Foxtail, Giant plant response rating (0 to 100 scale) (giant foxtail [2]): 90
Foxtail, Giant plant response rating (giant foxtail [2]; [10]): 90

N#Cc1cccc(Oc2ncc(Cl)cn2)c1-n1cc(C(F)F)cn1 [Compound 253, 3-(5-chloropyrimidin-2-yl)oxy-2-[4-(difluoromethyl)-1H-pyrazol-1-yl]benzonitrile]
pest or weed control at 31 g/ha (giant foxtail [1]; Setaria faberi, post-emergence, 240 h, 31 g ai/ha, 0 to 100 scale, 0 no effect, 100 complete control, read-out: Plant response rating, Foxtail, Giant): 20%
pest or weed control at 125 g/ha (giant foxtail [1]; Setaria faberi, post-emergence, 240 h, 125 g ai/ha, 0 to 100 scale, 0 no effect, 100 complete control, read-out: Plant response rating, Foxtail, Giant): 100%
pest or weed control at 16 g/ha (kochia; Bassia scoparia, post-emergence, 16 g ai/ha, postemergence, 0 is no effect, 100 is complete control, read-out: Plant response rating (0 to 100), Kochia): 80%
pest or weed control at 31 g/ha (kochia; Bassia scoparia, post-emergence, 31 g ai/ha, postemergence, visual rating, scale 0 to 100 (0 no effect, 100 complete control), 13 to 15 days, read-out: Kochia plant response rating): 98%
pest or weed control at 125 g/ha (kochia; Bassia scoparia, post-emergence, 125 g ai/ha, postemergence, visual rating, scale 0 to 100 (0 no effect, 100 complete control), read-out: Plant response rating, Kochia): 100%
pest or weed control at 62 g/ha (kochia; Bassia scoparia, post-emergence, Postemergence, 62 g ai/ha, scale 0 to 100 (0 no effect, 100 complete control), 13 to 15 days, read-out: Plant response rating, Kochia): 100%
plant injury at 250 g/ha (rice; Oryza sativa, read-out: Plant response rating, Rice): 25%
Pigweed plant response rating (pigweed; [9]): 85
pest or weed control at 16 g/ha (pigweed; Amaranthus retroflexus, post-emergence, 16 g ai/ha, postemergence, 0 is no effect, 100 is complete control, read-out: Plant response rating (0 to 100), Pigweed): 85%
pest or weed control at 125 g/ha (pigweed; Amaranthus retroflexus, post-emergence, 125 g ai/ha, postemergence, visual rating, scale 0 to 100 (0 no effect, 100 complete control), read-out: Plant response rating, Pigweed): 95%
pest or weed control at 62 g/ha (pigweed; Amaranthus retroflexus, post-emergence, Postemergence, 62 g ai/ha, scale 0 to 100 (0 no effect, 100 complete control), 13 to 15 days, read-out: Plant response rating, Pigweed): 98%
Ryegrass, Italian plant response rating (Italian ryegrass; [9]): 0
pest or weed control at 16 g/ha (Italian ryegrass; Lolium multiflorum, post-emergence, 16 g ai/ha, postemergence, 0 is no effect, 100 is complete control, read-out: Plant response rating (0 to 100), Ryegrass, Italian): 0%
pest or weed control at 125 g/ha (Italian ryegrass; Lolium multiflorum, post-emergence, 125 g ai/ha, postemergence, visual rating, scale 0 to 100 (0 no effect, 100 complete control), read-out: Plant response rating, Ryegrass, Italian): 0%
pest or weed control at 62 g/ha (Italian ryegrass; Lolium multiflorum, post-emergence, Postemergence, 62 g ai/ha, scale 0 to 100 (0 no effect, 100 complete control), 13 to 15 days, read-out: Plant response rating, Ryegrass, Italian): 0%
Corn plant response rating (crop injury, 0 = no effect, 100 = complete kill) at 31 g/ha (corn; Zea mays, post-emergence, 240 h, 31 g ai/ha, 0 to 100 scale, 0 no effect, 100 complete control): 20%
Corn plant response rating (crop injury, 0 = no effect, 100 = complete kill) at 125 g/ha (corn; Zea mays, post-emergence, 240 h, 125 g ai/ha, 0 to 100 scale, 0 no effect, 100 complete control): 60%
Morningglory plant response rating (morningglory; [9]): 75
pest or weed control at 16 g/ha (morningglory; Ipomoea, post-emergence, 16 g ai/ha, postemergence, 0 is no effect, 100 is complete control, read-out: Plant response rating (0 to 100), Morningglory): 60%
pest or weed control at 125 g/ha (morningglory; Ipomoea, post-emergence, 125 g ai/ha, postemergence, visual rating, scale 0 to 100 (0 no effect, 100 complete control), read-out: Plant response rating, Morningglory): 85%
pest or weed control at 62 g/ha (morningglory; Ipomoea, post-emergence, Postemergence, 62 g ai/ha, scale 0 to 100 (0 no effect, 100 complete control), 13 to 15 days, read-out: Plant response rating, Morningglory): 75%
Oat, Wild plant response rating (wild oat; [9]): 0
pest or weed control at 16 g/ha (wild oat; Avena fatua, post-emergence, 16 g ai/ha, postemergence, 0 is no effect, 100 is complete control, read-out: Plant response rating (0 to 100), Oat, Wild): 0%
pest or weed control at 125 g/ha (wild oat; Avena fatua, post-emergence, 125 g ai/ha, postemergence, visual rating, scale 0 to 100 (0 no effect, 100 complete control), read-out: Plant response rating, Oat, Wild): 10%
pest or weed control at 62 g/ha (wild oat; Avena fatua, post-emergence, Postemergence, 62 g ai/ha, scale 0 to 100 (0 no effect, 100 complete control), 13 to 15 days, read-out: Plant response rating, Oat, Wild): 10%
Nutsedge, Yellow plant response rating (yellow nutsedge; [9]): 5
pest or weed control at 16 g/ha (yellow nutsedge; Cyperus, post-emergence, 16 g ai/ha, postemergence, 0 is no effect, 100 is complete control, read-out: Plant response rating (0 to 100), Nutsedge, Yellow): 5%
pest or weed control at 125 g/ha (yellow nutsedge; Cyperus, post-emergence, 125 g ai/ha, postemergence, visual rating, scale 0 to 100 (0 no effect, 100 complete control), read-out: Plant response rating, Nutsedge, Yellow): 5%
pest or weed control at 62 g/ha (yellow nutsedge; Cyperus, post-emergence, Postemergence, 62 g ai/ha, scale 0 to 100 (0 no effect, 100 complete control), 13 to 15 days, read-out: Plant response rating, Nutsedge, Yellow): 5%
Foxtail, Giant plant response rating (0 to 100 scale) (giant foxtail [2]): 100
pest or weed control at 31 g/ha (giant foxtail [2]; Setaria faberi, pre-emergence, 240 h, 31 g ai/ha, 0 to 100 scale where 0 is no effect and 100 is complete control, visual, approximately 10 days, read-out: Plant response rating, Foxtail, Giant): 70%
